Reference: PubChem BioAssay (NCI)
Several values for one entry are separate records, joined by “and”; a condition that tells them apart may be missing. Equal entries are not always repeated.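 Growth conditions: 96-well plates. Treatment: test compound, 48 hours, 5 concentrations. Analysis: linear interpolation between bracketing concentrations; unreached endpoints set to highest concentration. At the GI50, growth is halved. TGI is the concentration that stops growth completely.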

Assays:
Test in all cases: growth of human tumour cells (NCI), 48 h
MALME-3M melanoma = tested on: MALME-3M melanoma
UO-31 renal = tested on: UO-31 renal
EKVX NSCLC = tested on: EKVX NSCLC
SF-268 CNS = tested on: SF-268 CNS
HOP-92 NSCLC = tested on: HOP-92 NSCLC
IGROV1 ovarian = tested on: IGROV1 ovarian
UACC-62 melanoma = tested on: UACC-62 melanoma
TK-10 renal = tested on: TK-10 renal
MDA-MB-435 = tested on: MDA-MB-435
SF-539 CNS = tested on: SF-539 CNS

Row | SMILES | GI50 (MALME-3M melanoma) | TGI (MALME-3M melanoma) | GI50 (UO-31 renal) | TGI (UO-31 renal) | GI50 (EKVX NSCLC) | TGI (EKVX NSCLC) | GI50 (SF-268 CNS) | TGI (SF-268 CNS) | GI50 (HOP-92 NSCLC) | TGI (HOP-92 NSCLC) | GI50 (IGROV1 ovarian) | TGI (IGROV1 ovarian) | GI50 (UACC-62 melanoma) | TGI (UACC-62 melanoma) | GI50 (TK-10 renal) | TGI (TK-10 renal) | GI50 (MDA-MB-435) | TGI (MDA-MB-435) | GI50 (SF-539 CNS) | TGI (SF-539 CNS)
1 | O=C(/C=C\c1ccc2ccccc2n1)c1cc(Cl)ccc1O | 8.64 µM | 25.8 µM | 4.33 µM | 17.8 µM | 13.7 µM | 87.5 µM | 12.2 µM | 27.2 µM | 1.82 µM | 9.35 µM | 5.21 µM | 22.6 µM | 7.51 µM | 21 µM | 7.88 µM | 85.3 µM | 3.66 µM | 21.7 µM | 7.15 µM | 23.2 µM
2 | C=C(C)[C@@H]1CC[C@]2(C(=O)NCCNCCNCCN)CC[C@]3(C)[C@H](CC[C@@H]4[C@@]5(C)CCC(=O)C(C)(C)[C@@H]5CC[C@]43C)[C@@H]12 | 7.4 µM | 16.5 µM | 6.85 µM | 14.5 µM | 7.34 µM | 14 µM | 7.53 µM | 15.9 µM | 2.93 µM | 10.3 µM | 6.42 µM | 14.4 µM | 8.96 µM | 19.1 µM | 10.1 µM | 19.7 µM | 8.7 µM | 17.5 µM | 7.53 µM | 14.6 µM
3 | COc1cc2c(cc1OCCCN1CCN(c3cc(=O)oc4c(C)c(OC)ccc34)CC1)N=C[C@@H]1CCCN1C2=O | 1.16 µM | 3.59 µM |  |  | 4.05 µM | > 47.3 µM | 0.91 µM | > 20.9 µM | 0.329 µM | 1.81 µM | 1.57 µM | 6.05 µM | 1.36 µM | 2.87 µM | 1.67 µM | > 100 µM | 1.59 µM | 3.79 µM | 1.73 µM | 7.97 µM
4 | N#C[C@H]1Nc2ccccc2[C@@H](O)C1O (stereo partly specified) |  | > 100 µM |  |  |  | > 100 µM |  | > 100 µM |  | > 100 µM |  | > 100 µM |  | > 100 µM |  | > 100 µM |  | > 100 µM |  | > 100 µM
5 | C[C@@H]1COC(Nc2ccc3ncnc(Nc4ccc(OCc5nccs5)c(Cl)c4)c3c2)=N1 | > 10 µM and 4.49 µM | > 10 µM and 18.5 µM | 0.821 µM and 1.29 µM | > 10 µM and 13.5 µM | 0.252 µM | > 10 µM | 6.27 µM and 5.59 µM | > 10 µM and 27.7 µM | 0.633 µM and 0.782 µM | 8.43 µM and 5.68 µM | 1.09 µM and 0.544 µM | > 10 µM and 8.03 µM | 6.14 µM and 3.39 µM | > 10 µM and 14.9 µM | 0.235 µM and 0.259 µM | > 10 µM and 14.8 µM | 6.2 µM and 6.24 µM | > 10 µM and 23.1 µM | > 10 µM and 11.9 µM | > 10 µM and 29.1 µM
6 | CC(=O)OC12CC(C)C3(O)C4C=C(C)C(=O)[C@@]4(O)CC(CO)=C[C@H]3C1C2(C)C (stereo partly specified) | > 1000 µM | > 1000 µM | > 1000 µM | > 1000 µM | > 1000 µM | > 1000 µM | > 1000 µM | > 1000 µM | 45.4 µM | > 1000 µM | > 1000 µM | > 1000 µM |  | > 1000 µM |  |  | 0.205 µM |  | > 1000 µM | > 1000 µM
7 | Cc1ccc2[nH]c(C(=O)NN3C(=O)C(C)SC34CCCCC4C)c(-c3ccccc3)c2c1 (stereo unspecified) | 20.4 µM | 38.1 µM | 16.8 µM | 32.6 µM | 24.5 µM | 61.9 µM | 18.8 µM | 43.6 µM | 19.5 µM | 38.5 µM |  |  | 13.4 µM | 28.3 µM | 19.1 µM | 35.6 µM | 16.4 µM | 33.1 µM | 22.3 µM | 44.9 µM
8 | CN(C)S(=O)(=O)c1ccc(Nc2ccc(O)c3c2C(=O)c2c([N+](=O)[O-])ccc(O)c2C3=O)cc1 |  | > 100 µM |  | > 100 µM |  | > 100 µM |  | > 100 µM |  | > 100 µM |  | > 100 µM |  | > 100 µM |  | > 100 µM |  | > 100 µM |  | 
9 | Cc1ccc(F)cc1NC(=O)c1cc(Cl)ccc1Nc1ccccc1 | > 100 µM | > 100 µM | > 100 µM | > 100 µM |  |  | > 100 µM | > 100 µM | 32 µM | > 100 µM | > 100 µM | > 100 µM | > 100 µM | > 100 µM | > 100 µM | > 100 µM | > 100 µM | > 100 µM | 40.7 µM | > 100 µM
10 | N/C(=N\c1nc2ccccc2s1)NC(=O)Nc1cccc2ccccc12 | 1.24 µM | > 100 µM | 0.802 µM | > 100 µM | 0.462 µM | > 100 µM | 2.72 µM | > 100 µM | 1.81 µM | > 47.3 µM | 0.371 µM | > 100 µM | 0.354 µM | > 95 µM |  |  | 0.0321 µM | 0.143 µM | 0.242 µM | 0.768 µM
